Several values for one entry are separate records, joined by “and”; a condition that tells them apart may be missing. Identical values can stand only once.
Tested on: 883617-216-R-J1-PDC complex spheroids, growth, % test/control
Experiment: Anticancer human tumor 883617-216-R-J1-PDC patient-derived bladder carcinoma cell line growth inhibition [AhR]
Conditions: for viability, T/C: stronger effect = lower value
Outline: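 Spheroids combined tumor cells with HUVEC endothelial cells and human MSCs as stroma. AhR antagonists were paired with standard or investigational drugs, each dosed in half-log steps down from near clinical Cmax, or from 10 microM where Cmax was unknown.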

[1] = curve of first compound, second compound 0.1 µM
[2] = curve of first compound, second compound 0.316 µM
[3] = curve of first compound, second compound 1 µM
[4] = curve of first compound, second compound 3.16 µM
[5] = curve of first compound, second compound 10 µM
[6] = second compound 0.1 µM, first compound 0.0316 µM
[7] = second compound 0.1 µM, first compound 0.1 µM
[8] = second compound 0.316 µM, first compound 0.0316 µM
[9] = second compound 0.316 µM, first compound 0.1 µM
[10] = second compound 1 µM, first compound 0.0316 µM
[11] = second compound 1 µM, first compound 0.1 µM
[12] = second compound 3.16 µM, first compound 0.0316 µM
[13] = second compound 3.16 µM, first compound 0.1 µM
[14] = second compound 10 µM, first compound 0.0316 µM
[15] = second compound 10 µM, first compound 0.1 µM
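Also: exposure lasted 7 days after dosing on day 3 of spheroid growth.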

Question: For `CC[C@@]1(O)C(=O)OCc2c1cc1n(c2=O)Cc2cc3c(CN(C)C)c(O)ccc3nc2-1` + Cc1ccccc1N=Nc1ccc(NC(=O)c2ccnn2C)c(C)c1, which IC50 [1] is on record?
Answer: > 100 nM

Question: And the IC50 [2]?
Answer: > 100 nM

Question: And the IC50 [3]?
Answer: > 100 nM

Question: What about the IC50 [4] of the same compound?
Answer: > 100 nM

Question: And the IC50 [5]?
Answer: > 100 nM

Question: And the viability, T/C (second compound 0.1 µM, first compound 0.000316 µM)?
Answer: 90.7%

Question: And the viability, T/C (second compound 0.1 µM, first compound 0.001 µM)?
Answer: 85%

Question: What about the viability, T/C (second compound 0.1 µM, first compound 0.00316 µM) of the same compound?
Answer: 86.3%

Question: What about the viability, T/C (second compound 0.1 µM, first compound 0.01 µM) of the same compound?
Answer: 80.3%

Question: And the viability, T/C [6]?
Answer: 76.9%

Question: And the viability, T/C [7]?
Answer: 71.1%

Question: What about the viability, T/C (second compound 0.316 µM, first compound 0.000316 µM) of the same compound?
Answer: 86.8%

Question: What about the viability, T/C (second compound 0.316 µM, first compound 0.001 µM) of the same compound?
Answer: 86.6%

Question: What about the viability, T/C (second compound 0.316 µM, first compound 0.00316 µM) of the same compound?
Answer: 76.2%

Question: And the viability, T/C (second compound 0.316 µM, first compound 0.01 µM)?
Answer: 73%

Question: What about the viability, T/C [8] of the same compound?
Answer: 70%

Question: And the viability, T/C [9]?
Answer: 62%

Question: And the viability, T/C (second compound 1 µM, first compound 0.000316 µM)?
Answer: 82.5%

Question: And the viability, T/C (second compound 1 µM, first compound 0.001 µM)?
Answer: 80.3%

Question: And the viability, T/C (second compound 1 µM, first compound 0.00316 µM)?
Answer: 79.4%

Question: And the viability, T/C (second compound 1 µM, first compound 0.01 µM)?
Answer: 71.4%

Question: And the viability, T/C [10]?
Answer: 66%

Question: And the viability, T/C [11]?
Answer: 69.6%

Question: What about the viability, T/C (second compound 3.16 µM, first compound 0.000316 µM) of the same compound?
Answer: 70%

Question: What about the viability, T/C (second compound 3.16 µM, first compound 0.001 µM) of the same compound?
Answer: 79.1%

Question: What about the viability, T/C (second compound 3.16 µM, first compound 0.00316 µM) of the same compound?
Answer: 78.6%

Question: And the viability, T/C (second compound 3.16 µM, first compound 0.01 µM)?
Answer: 74.7%

Question: And the viability, T/C [12]?
Answer: 70.7%

Question: What about the viability, T/C [13] of the same compound?
Answer: 71.3%

Question: And the viability, T/C (second compound 10 µM, first compound 0.000316 µM)?
Answer: 74.2%

Question: What about the viability, T/C (second compound 10 µM, first compound 0.001 µM) of the same compound?
Answer: 80.7%

Question: What about the viability, T/C (second compound 10 µM, first compound 0.00316 µM) of the same compound?
Answer: 78%

Question: What about the viability, T/C (second compound 10 µM, first compound 0.01 µM) of the same compound?
Answer: 70.9%

Question: And the viability, T/C [14]?
Answer: 75.6%

Question: And the viability, T/C [15]?
Answer: 73%

Question: For `COc1ccc([C@@H](O)c2cc(-c3ncnc4cc(N5CCOCC5)ccc34)c(F)cc2Cl)nn1`, which viability, T/C (compound 0.0316 µM) is on record?
Answer: 110% and 102% and 97.7%

Question: And the viability, T/C (compound 0.1 µM)?
Answer: 110% and 106% and 123%

Question: And the viability, T/C (compound 0.316 µM)?
Answer: 86.4% and 91.7% and 70%

Question: And the viability, T/C (compound 1 µM)?
Answer: 69.8% and 77.5% and 73.8%

Question: What about the viability, T/C (compound 3.16 µM) of the same compound?
Answer: 54.8% and 51.5% and 64.2%

Question: What about the viability, T/C (compound 10 µM) of the same compound?
Answer: 36.5% and 39.1% and 48.6%

Question: What about the IC50 (curve of compound) of the same compound?
Answer: 3720 nM and 3860 nM and > 10000 nM

Question: How did the IC50 [1] turn out when `O=C(C=Cc1cccc(S(=O)(=O)Nc2ccccc2)c1)NO` + Cc1cncc(-c2nc(NCCc3c[nH]c4ccccc34)c3ncn(C(C)C)c3n2)c1 was run?
Answer: 1740 nM

Question: What about the IC50 [2] of the same compound?
Answer: 1660 nM

Question: What about the IC50 [3] of the same compound?
Answer: 1960 nM

Question: And the IC50 [4]?
Answer: 1900 nM

Question: What about the IC50 [5] of the same compound?
Answer: < 31.6 nM

Question: What about the viability, T/C [6] of the same compound?
Answer: 92.5%

Question: What about the viability, T/C [7] of the same compound?
Answer: 93.9%

Question: And the viability, T/C (second compound 0.1 µM, first compound 0.316 µM)?
Answer: 83%

Question: What about the viability, T/C (second compound 0.1 µM, first compound 1 µM) of the same compound?
Answer: 60.6%

Question: What about the viability, T/C (second compound 0.1 µM, first compound 3.16 µM) of the same compound?
Answer: 37%

Question: And the viability, T/C (second compound 0.1 µM, first compound 10 µM)?
Answer: 3.56%

Question: And the viability, T/C [8]?
Answer: 88.5%

Question: What about the viability, T/C [9] of the same compound?
Answer: 86.4%

Question: And the viability, T/C (second compound 0.316 µM, first compound 0.316 µM)?
Answer: 84.4%

Question: What about the viability, T/C (second compound 0.316 µM, first compound 1 µM) of the same compound?
Answer: 60.3%

Question: And the viability, T/C (second compound 0.316 µM, first compound 3.16 µM)?
Answer: 34.5%

Question: And the viability, T/C (second compound 0.316 µM, first compound 10 µM)?
Answer: 4.17%

Question: What about the viability, T/C [10] of the same compound?
Answer: 97.1%

Question: And the viability, T/C [11]?
Answer: 101%

Question: And the viability, T/C (second compound 1 µM, first compound 0.316 µM)?
Answer: 96.4%

Question: What about the viability, T/C (second compound 1 µM, first compound 1 µM) of the same compound?
Answer: 63.5%

Question: What about the viability, T/C (second compound 1 µM, first compound 3.16 µM) of the same compound?
Answer: 39.1%

Question: What about the viability, T/C (second compound 1 µM, first compound 10 µM) of the same compound?
Answer: 2.44%

Question: And the viability, T/C [12]?
Answer: 123%

Question: And the viability, T/C [13]?
Answer: 114%

Question: What about the viability, T/C (second compound 3.16 µM, first compound 0.316 µM) of the same compound?
Answer: 94.8%

Question: And the viability, T/C (second compound 3.16 µM, first compound 1 µM)?
Answer: 69.8%

Question: What about the viability, T/C (second compound 3.16 µM, first compound 3.16 µM) of the same compound?
Answer: 34.6%

Question: What about the viability, T/C (second compound 3.16 µM, first compound 10 µM) of the same compound?
Answer: 2.66%

Question: And the viability, T/C [14]?
Answer: 52.4%

Question: What about the viability, T/C [15] of the same compound?
Answer: 43.2%

Question: And the viability, T/C (second compound 10 µM, first compound 0.316 µM)?
Answer: 34.7%

Question: And the viability, T/C (second compound 10 µM, first compound 1 µM)?
Answer: 42.7%

Question: What about the viability, T/C (second compound 10 µM, first compound 3.16 µM) of the same compound?
Answer: 22%

Question: And the viability, T/C (second compound 10 µM, first compound 10 µM)?
Answer: 1.42%

Question: Which viability, T/C (compound 0.0316 µM) does the source give for `NS(=O)(=O)OCC1CC(n2ccc3c(NC4CCc5ccccc54)ncnc32)CC1O` (centres undefined) here?
Answer: 154% and 163% and 90.4%

Question: What about the viability, T/C (compound 0.1 µM) of the same compound?
Answer: 209% and 200% and 81.5%

Question: What about the viability, T/C (compound 0.316 µM) of the same compound?
Answer: 214% and 242% and 83.6%

Question: What about the viability, T/C (compound 1 µM) of the same compound?
Answer: 140% and 130% and 64%

Question: And the viability, T/C (compound 3.16 µM)?
Answer: 48.6% and 34.8% and 33.6%

Question: And the viability, T/C (compound 10 µM)?
Answer: 24.7% and 20.3% and 48.3%

Question: What about the IC50 (curve of compound) of the same compound?
Answer: 3120 nM and 2450 nM and 2010 nM
